# In patent publication US20110119780A1, “SCREENING FOR NON-GENOTOXIC CARCINOGENS” (priority 2008, published 2011):
# Several values for one entry are separate records, joined by “and”; a condition that tells them apart may be missing. Identical values can stand only once.
# Columns and labels:
# [1] = system: hepatocellular hypertrophy; assay: H&E staining of liver sections, Chlordane-treated mice; assay type: in vivo
# Excerpt: A 20× objective lens was used to capture the images.
# Cyp3a11 and Cyp2b10 = assay: Inductive effect of Phenobarbital in a panel of PXR/CAR knockout and humanised mice
# Cyp2b10 and Cyp3a11 = Cyp2b10 and Cyp3a11 protein in pooled liver microsomes by Western blotting, PB; assay type: in vivo, mouse
# Procedure: Liver microsomes (0.3 ug) from each animal were pooled (n=9/10) for wild type, huPXR/huCAR and PXRKO/CARKO mice and characterised for Cyp2b10 and Cyp3a11 by immunoblotting using rabbit polyclonal CH4 (1:2000 dilution) and CH32 antibodies (1:2000 dilution), respectively (C. Henderson, University of Dundee, UK); +ve, control was either purified recombinant his-tagged Cyp3a11 membranes (0.1 pmol/u.l) or purified recombinant his-tagged Cyp2b10 membranes (O.Olpmol/u.l). Blots were developed using ECL and exposed for 30 secs.
# Cyp2b10 = assay: Hepatic P450 induction: PROD and BROD in liver microsomes; assay type: in vivo, mouse; details: 80 mg/kg IP x4 days
# Procedure: (§1) Each assay was performed on individual liver microsomes. Values are expressed as Mean±SD (n=9/10).
# BROD and PROD are markers of Cyp2b10 activity in the mouse. […] However, PROD or BROD activities were not altered in the PXRKO/CARKO mice upon exposure to PB. Overall, PB induced P450 catalytic activities in the WT and huPXR/huCAR mouse lines, but not in the animals which were devoid of these receptors.
# [2] = system: hepatocellular proliferation; assay: Hepatic cell proliferation, BrdU incorporation (S-phase labelling index); details: for % mean (S-phase labelling index relative to control of the same mouse line = 100) / % BrDu positive Cells, Mean / % BrDu positive Cells (hepatic S-phase labelling index), individual mouse: PB-treated; for % BrDu positive Cells, Mean: group mean; for % BrDu positive Cells (hepatic S-phase labelling index), individual mouse: individual animals
# Procedure: Osmotic pumps containing BrdU (15 mg/ml/PBS) were implanted into WT, huPXR/huCAR and PXRKO/CARKO mice prior to PB treatment (80 mg/kg/4 days/IP). Livers sections were labelled using a Brdu antibody (Dako). All microscopic images were captured at a magnification of 40×. Data represents random sampling of 10 images per lobes (2) counting approximately 180,000 cells/animal group, as according to Pat-0013-0014. Values are expressed as Mean±SD, n=9-10 for control mice, n=8-9 for PB-treated mice.
# (§2) The study consisted of 6 groups with 10 WT mice per group, 9-10 PXRKO/CARKO mice per group and 9 huPXR/huCAR mice per group (Table 19). […] On Day 1 all animals were dosed with either 80 mg/kg PB/saline or saline alone by intraperitoneal injection for 4 days as detailed in Table 19.
# All mouse liver and duodenum sections were analysed for BrdU incorporation as a measure of cell proliferation. The method used was an indirect BrdU labelling assay.
# [3] = PXR/CAR-dependent hepatomegaly by PB (body, liver weights); details: 80 mg/kg IP x4 days; for Body weight - Day 1 / Body weight - Day 5 / Liver weight / Liver/Body weight Ratio: Mean ± SD
# Excerpt: In order to assess whether humanised PXR/CAR mice mimic the response to PB in humans, the huPXR/huCAR and PXRKO/CARKO mouse models were used. The mutant mouse strains were obtained from Artemis. The WT mouse strain C57BL/6J was obtained from Harlan (UK). All animals were between 10 and 16 weeks of age.The following parameters were studied: • Liver/body weight ratios • BrdU incorporation analysed as a measure of cell proliferation • Haematoxylin and eosin (H&E) liver histopathology • Expression and activity of P450s by SDS-PAGE and Western blotting in liver microsomes • Apoptotic indices as analysed by TUNEL assay in the liver
# as §2
# Following treatment with PB or the vehicle, the mice were sacrificed and their livers were removed and weighed.
# Cyp1a1/1a2 = assay: Hepatic P450 induction: MROD and EROD in liver microsomes; details: 80 mg/kg IP x4 days
# Procedure: as §1
# P450 catalytic activities in the liver microsomal fractions were quantified. For the quantification of mouse Cyp2b10 and Cyp3a11 activities, the dealkylation of pentoxyresofurin (PROD) and the debenzylation of benzyloxyquinoline (BQ) activities, respectively. In addition, […] (BROD), methoxyresorufin-O-demethylase (MROD) and 7-ethoxyresorufin-)-deethylase (EROD) activities were also measured and evaluated (see FIG. 11).
# EROD activity is indicative of Cyp1a1/1a2 and Cyp1b1 in the mouse, whereas MROD is a substrate for Cyp1a2. However, other isoforms may be contributing to the measured activities.
# [4] = system: hepatocellular hypertrophy; assay: H&E analysis of liver sections, PB; assay type: in vivo, mice; details: 80 mg/kg IP x4 days
# Excerpt: Portal vein (P) and central vein (C) are labelled. A 20× objective lens was used to capture the images.
# Two samples of the liver (one from the lobe, one from the median lobe) and one sample of the small intestine were taken and preserved in 4% neutral buffered formaldehyde (NBF). The preserved liver samples of all mice of all groups were trimmed, processed and embedded in paraffin. The paraffin-embedded samples were sent to Progenix, Inverkeithing, UK where they were sectioned at a nominal thickness of about 5 æm and then stained with haematoxylin and eosin (H&E). One section of each organ sample was examined by Dr. Ortwin Vogel, Consultant Pathologist, Kiel, Germany. Subsequent to his histopatholoical analysis of all H&E stained mouse livers and small intestines, Dr. Vogel reported the following finding;
# hepatocellular apoptosis = assay: Liver in situ cell death, TUNEL labelling assay (apoptotic indices); assay type: in vivo; details: WT, huPXR/huCAR and PXRKO/CARKO mice; Student's t-test
# Excerpt: Livers sections were labelled using a TUNEL in situ cell detection kit (Roche). […] Data represents random sampling of 20 images per lobes (2) counting approximately 380,000 cells/animal group.
# However, no such consistency has been observed in mice. An indirect TUNEL labelling assay was used to analyse hepatic in situ death (FIG. 9/Table 21). The present study has shown a marker variation in apoptotic indices in mouse liver. Thus, small (e.g. 50%) compound-induced decreases, upon a low background, were not readily demonstrable.
# Cyp3a11 = assay: Hepatic P450 induction: benzyloxyquinoline debenzylation (BQ) in liver microsomes; assay type: in vivo, mouse; details: 80 mg/kg IP x4 days
# Procedure: as §1
# [5] = Pentobarbitone sleeping test; assay type: in vivo, mice; details: male, single intraperitoneal dose 25 mg/kg
# Procedure: In this experiment, the activity of these transcription factors in combination was determined by measuring the barbiturate induced sleeping time. Sleeping time has been known for many years to be directly proportional to the hepatic cytochrome P450 activity and this activity can be at least in part ascribed to the P450 levels in the liver determined by CAR and PXR function.
# Mice were given a single intraperitoneal dose of Narcoren (sodium pentobarbitone; purchased via a Veterinary Consultant; distributed by Merial GmbH, Germany) at 25 mg/kg of body weight. The time taken for the mice to lose, and subsequently to regain, their righting reflex was measured.
smiles,measurement,setting,value
ClC1=C(Cl)C2(Cl)C3C(Cl)C(Cl)CC3C1(Cl)C2(Cl)Cl (centres unmarked) [Chlordane],hypertrophy on H&E staining,[1]; PXRKO/CARKO mice,not
same,liver finding on H&E staining,[1]; WT and hPXR_old/hCAR mice,hypertrophy
"CCC1(c2ccccc2)C(=O)NC(=O)NC1=O [PB, Phenobarbital]",activation of Cyp3a11 and Cyp2b10 in vivo,Cyp3a11 and Cyp2b10,predominantly CAR-dependent
same,Cyp2b10 and Cyp3a11 protein induced (Western blotting),Cyp2b10 and Cyp3a11; PXRKO/CARKO animals,not
same,Cyp2b10 and Cyp3a11 protein (Western blotting),Cyp2b10 and Cyp3a11; WT and humanised mouse lines,induced
same,PROD or BROD activities,Cyp2b10; PXRKO/CARKO mice,not altered
same,Cyp2b10 induction (BROD and PROD activities),"Cyp2b10; WT and huPXR/huCAR mouse lines, at similar levels",marker Cyp2b10 induction was observed
same,% mean (S-phase labelling index relative to control of the same mouse line = 100),[2]; PXRKO/CARKO mice,144%
same,"% BrDu positive Cells, Mean",[2]; PXRKO/CARKO mice,2.83%
same,"% BrDu positive Cells (hepatic S-phase labelling index), individual mouse",[2]; PXRKO/CARKO mice,2.16% and 1.98% and 1.82% and 2.30% and 3.77% and 5.10% and 3.71% and 1.88% and 3.06% and 2.51%
same,% mean (S-phase labelling index relative to control of the same mouse line = 100),[2]; WT mice,531%
same,"% BrDu positive Cells, Mean",[2]; WT mice,9.30%
same,"% BrDu positive Cells (hepatic S-phase labelling index), individual mouse",[2]; WT mice,9.45% and 5.54% and 16.69% and 6.32% and 9.50% and 8.09% and 7.64% and 13.60%
same,"hepatocellular labelling index (S-phase), increase","[2]; WT mice, 80 mg/kg IP x4 days, BrdU",approximately 5 fold
same,% mean (S-phase labelling index relative to control of the same mouse line = 100),[2]; huPXR/huCAR mice,104%
same,"% BrDu positive Cells, Mean",[2]; huPXR/huCAR mice,2.00%
same,"% BrDu positive Cells (hepatic S-phase labelling index), individual mouse",[2]; huPXR/huCAR mice,0.37% and 0.-18% and 1.19% and 1.86% and 3.GO and 1.98% and 3.18% and 3.24% and 2.13%
same,effect on cell proliferation (BrdU labelling),"[2]; huPXR/huCAR or PXRKO/CARKO mice, 80 mg/kg IP x4 days",no effect
same,"Body weight - Day 1, % mean own control",[3]; PXRKO/CARKO mice,(100 ± 8) %
same,"Body weight - Day 5, % mean own control",[3]; PXRKO/CARKO mice,(98 ± 8) %
same,"Liver weight, % mean own control",[3]; PXRKO/CARKO mice,(98 ± 16) %
same,"Liver/Body weight Ratio, % mean own control",[3]; PXRKO/CARKO mice,(100 ± 9) %
same,Body weight - Day 1,[3]; PXRKO/CARKO mice,27.2 ± 2.2 g
same,Body weight - Day 5,[3]; PXRKO/CARKO mice,26.6 ± 2.2 g
same,Liver weight,[3]; PXRKO/CARKO mice,1.42 ± 0.23 g
same,Liver/Body weight Ratio,[3]; PXRKO/CARKO mice,5.3 ± 0.4
same,"Body weight - Day 1, % mean own control",[3]; WT mice,(106 + 6) %
same,"Body weight - Day 5, % mean own control",[3]; WT mice,(84 ± 5) %
same,"Liver weight, % mean own control",[3]; WT mice,(101 ± 6) %
same,Body weight - Day 1,[3]; WT mice,26.4 ± 1.8 g
same,Body weight - Day 5,[3]; WT mice,23.2 ± 1.3 g
same,Liver weight,[3]; WT mice,1.44 ± 0.09 g
same,Liver/Body weight Ratio,[3]; WT mice,6.2 ± 0.2
same,"Body weight - Day 1, % mean own control",[3]; huPXR/huCAR mice,(104 ± 5) %
same,"Body weight - Day 5, % mean own control",[3]; huPXR/huCAR mice,(99 ± 6) %
same,"Liver weight, % mean own control",[3]; huPXR/huCAR mice,(121 ± 11) %
same,Body weight - Day 1,[3]; huPXR/huCAR mice,26.3 ± 1.2 g
same,Body weight - Day 5,[3]; huPXR/huCAR mice,25.4 ± 1.5 g
same,Liver weight,[3]; huPXR/huCAR mice,1.69 ± 0.16 g
same,Liver/Body weight Ratio,[3]; huPXR/huCAR mice,6.7 ± 0.6
same,MROD and EROD enzyme activities,Cyp1a1/1a2; PXRKO/CARKO line,no increase
same,MROD and EROD enzyme activities,Cyp1a1/1a2; WT and huPXR/huCAR mice,increased
same,hepatocellular hypertrophy (H&E),[4]; PXRKO/CARKO mice,no unequivocal evidence
same,"liver growth response (hypertrophy, hyperplasia), conclusion",[4]; PXRKO/CARKO mice,did not induce hepatomegaly
same,"liver growth response (hypertrophy, hyperplasia), conclusion",[4]; WT mice,induced hypertrophy and hyperplasia
same,centrilobular hepatocellular hypertrophy (H&E),[4]; huPXR/huCAR and WT animals,slight to moderate
same,"liver growth response (hypertrophy, hyperplasia), conclusion",[4]; huPXR/huCAR mice,induced hypertrophy but not hyperplasia
same,"Hepatic apoptotic indices (TUNEL), PB-treated vs control",hepatocellular apoptosis,no statistical significance found
same,Cyp3a11 induction (BQ activity),Cyp3a11; PXRKO/CARKO mice,absence of Cyp3a11 induction
same,BQ activity,"Cyp3a11; WT animals, liver microsomes",marginal increase
same,"BQ activity, increase","Cyp3a11; huPXR/huCAR mice, liver microsomes",5 fold
"CCCC(C)C1(CC)C(=O)NC(=O)NC1=O (centres unmarked) [pentobarbitone, sodium pentobarbitone]",Sleeping time,[5]; PXR/CAR hum (double humanised) mouse,34 min
same,Sleeping time,[5]; Wt mouse,21 min
